{"source": "patent US8956445B2", "about": "“High stability diionic liquid salts” (Sigma-Aldrich Co., priority 2004, dated 2015)", "key": {"[1]": {"test": "Density (2.0 mL volumetric tube, weighing by difference)", "format": "physicochemical", "details": "23° C."}, "[2]": {"test": "Solvation interaction parameters by inverse gas-liquid chromatography (Abraham solvation model)", "format": "physicochemical", "experimental": "The preparation of the capillary columns for inverse gas-liquid chromatographic analysis was performed using a previously described procedure.^31 All capillary columns had efficiencies between 2100 to 2500 plates/meter. Characterization of the capillary columns and probe molecule descriptions are listed in supplemental information. Multiple linear regression analysis (MLRA) and statistical calculations were performed using the program Analyse-it (Microsoft, USA).\nWe have previously reported that the Abraham solvation model, a linear free energy approach that utilizes inverse gas-liquid chromatography to describe the solvation properties of a liquid, can be used to characterize room temperature ionic liquids.^31 Described by equation 1, the model provides the so-called “interaction parameters” (r, s, a, b, l) by using multiple linear regression analysis to fit the retention factor (k, determined chromatographically) to the solute descriptors (R2, π2^H, α2^H, β2^H, log L^16) for a wide variety of probe solute molecules. […] The solvation properties of four dicationic ionic liquids (see Table 4) were evaluated and the interaction parameters compared to those obtained for their traditional monocationic analogues 1-butyl-3-methylimidazolium and 1-butyl-1-methylpyrrolidinium ionic liquids.\nPreviously we characterized a large number of room temperature ionic liquids in terms of multiple solvation interactions using the solvation parameter model, shown in equation 3.^44 log k=c+rR2+sπ2^H+aα2^H+bβ2^H+l log L^16 [3] This approach utilizes inverse gas-liquid chromatography and allows the use of a large number of probe molecules to deconvolute solute retention in terms of the type and magnitude of individual solvation interactions. The solute descriptors (R2, π2^H, α2^H, β2^H, log L^16) from Equation 3 are obtained from the literature for many probe molecules containing a variety of functional groups.^45 The retention factor is determined chromatographically. The solute descriptors and retention factors are subjected to multiple linear regression analysis to obtain the interaction parameter coefficients (r, s, a, b, l), which ultimately characterize the stationary phase: r is the ability of the diionic liquid containing-stationary phase to interact with π and n electrons of the solute, s is a measure of the dipolarity/polarizability of the diionic liquid containing-stationary phase, a defines the diionic liquid containing-stationary phase hydrogen bond basicity, b is a measure of the hydrogen bond acidity, and/refers to the ability of the diionic liquid containing-stationary phase to separate adjacent members of a homologous series.^46\nTest solutes used to determine interaction parameters and solvation thermodynamics were dissolved in dichloromethane. A Hewlett-Packard model 5890 gas chromatograph and a Hewlett-Packard 6890 series integrator were used for all separations. Split injection and flame ionization detection were utilized with injection and detection temperatures of 250° C. Helium was used as the carrier gas with a column inlet pressure of 3.1 psi and flow rate of 1.0 mL/min. Methane was used to determine the dead volume of the column. Multiple linear regression analysis and statistical calculations were performed using the program Analyze-it (Microsoft)."}, "[3]": {"experimental": "Thermal stabilities were measured by immobilizing an approximate 0.15-0.20 microns film of the ionic liquid on the inner wall of a fused silica capillary. The capillary was then heated slowly in an oven and a very sensitive flame ionization detector (or mass spectrometer) used to detect any volatilization or decomposition of the ionic liquid. There are several advantages of using this set-up to measure the thermal stabilities of ionic liquids. The thermal stability is measured in the absence of oxygen by purging the capillary with a continuous flow of an inert gas such as helium, hydrogen, or nitrogen. […] Finally, this approach can use mass spectrometry detection to determine the likely volatilization/decomposition products.", "remark": "listed apart in the source"}, "[4]": {"test": "Refractive index (Abbe-3L refractometer)", "format": "physicochemical", "details": "23° C."}, "[5]": {"test": "Surface tension (DuNuoy Tensiometer)", "format": "physicochemical", "details": "room temperature (23° C.)"}}}
{"smiles": "Cn1cc[n+](CCCCCCCCC[n+]2ccn(C)c2)c1.O=S(=O)([N-]S(=O)(=O)C(F)(F)F)C(F)(F)F.O=S(=O)([N-]S(=O)(=O)C(F)(F)F)C(F)(F)F", "note": "[C9(mim)2-NTf2, 1,9-di(3-methylimidazolium)nonane di-bis[(trifluoromethyl)sulfonyl]imidate]", "values": [{"measurement": "Density", "setting": "[1]", "result": 1.47, "unit": "g/mL"}, {"measurement": "Miscibility with Heptane", "result": "Immiscible"}, {"measurement": "Miscibility with Water", "result": "Immiscible"}, {"measurement": "a (hydrogen bond basicity)", "setting": "[2]; 40° C.", "result": 1.83}, {"measurement": "b (hydrogen bond acidity)", "setting": "[2]; 40° C.", "result": 0.47}, {"measurement": "c (interaction parameter table, constant)", "setting": "[2]; 40° C.", "result": "−2.86"}, {"measurement": "l (dispersion forces)", "setting": "[2]; 40° C.", "result": 0.62}, {"measurement": "r (interaction via nonbonding and π-electrons)", "setting": "[2]; 40° C.", "result": 0.16}, {"measurement": "s (dipolarity/polarizability)", "setting": "[2]; 40° C.", "result": 1.81}, {"measurement": "a (hydrogen bond basicity)", "setting": "[2]; 70° C.", "result": 1.75}, {"measurement": "b (hydrogen bond acidity)", "setting": "[2]; 70° C.", "result": 0.20}, {"measurement": "c (interaction parameter table, constant)", "setting": "[2]; 70° C.", "result": "−2.95"}, {"measurement": "l (dispersion forces)", "setting": "[2]; 70° C.", "result": 0.51}, {"measurement": "r (interaction via nonbonding and π-electrons)", "setting": "[2]; 70° C.", "result": 0.11}, {"measurement": "s (dipolarity/polarizability)", "setting": "[2]; 70° C.", "result": 1.76}, {"measurement": "a (hydrogen bond basicity)", "setting": "[2]; 100° C.", "result": 1.50}, {"measurement": "b (hydrogen bond acidity)", "setting": "[2]; 100° C.", "result": 0.15}, {"measurement": "c (interaction parameter table, constant)", "setting": "[2]; 100° C.", "result": "−3.06"}, {"measurement": "l (dispersion forces)", "setting": "[2]; 100° C.", "result": 0.43}, {"measurement": "r (interaction via nonbonding and π-electrons)", "setting": "[2]; 100° C.", "result": 0.11}, {"measurement": "s (dipolarity/polarizability)", "setting": "[2]; 100° C.", "result": 1.64}, {"measurement": "thermal stability (volatilization/decomposition temperature)", "setting": "[3]", "result": "350-360 °C"}, {"measurement": "Refractive Index", "setting": "[4]", "result": 1.442}, {"measurement": "Surface Tension", "setting": "[5]", "result": 43.1, "unit": "dynes/cm"}]}
{"smiles": "O=S(=O)([N-]S(=O)(=O)C(F)(F)F)C(F)(F)F.O=S(=O)([N-]S(=O)(=O)C(F)(F)F)C(F)(F)F.c1ccc(Cn2cc[n+](CCCCCCCCCCCC[n+]3ccn(Cc4ccccc4)c3)c2)cc1", "note": "[C12(benzim)2-NTf2, 1,12-di(3-benzylimidazolium)dodecane di-bis[(trifluoromethyl)sulfonyl]imidate]", "values": [{"measurement": "Density", "setting": "[1]", "result": 1.37, "unit": "g/mL"}, {"measurement": "Miscibility with Heptane", "result": "Immiscible"}, {"measurement": "Miscibility with Water", "result": "Immiscible"}, {"measurement": "a (hydrogen bond basicity)", "setting": "[2]; 40° C.", "result": 1.96}, {"measurement": "b (hydrogen bond acidity)", "setting": "[2]; 40° C.", "result": 0.84}, {"measurement": "c (interaction parameter table, constant)", "setting": "[2]; 40° C.", "result": "−2.94"}, {"measurement": "l (dispersion forces)", "setting": "[2]; 40° C.", "result": 0.66}, {"measurement": "r (interaction via nonbonding and π-electrons)", "setting": "[2]; 40° C.", "result": 0.11}, {"measurement": "s (dipolarity/polarizability)", "setting": "[2]; 40° C.", "result": 1.65}, {"measurement": "a (hydrogen bond basicity)", "setting": "[2]; 70° C.", "result": 1.75}, {"measurement": "b (hydrogen bond acidity)", "setting": "[2]; 70° C.", "result": 0.57}, {"measurement": "c (interaction parameter table, constant)", "setting": "[2]; 70° C.", "result": "−3.07"}, {"measurement": "l (dispersion forces)", "setting": "[2]; 70° C.", "result": 0.56}, {"measurement": "r (interaction via nonbonding and π-electrons)", "setting": "[2]; 70° C.", "result": 0.07}, {"measurement": "s (dipolarity/polarizability)", "setting": "[2]; 70° C.", "result": 1.62}, {"measurement": "a (hydrogen bond basicity)", "setting": "[2]; 100° C.", "result": 1.44}, {"measurement": "b (hydrogen bond acidity)", "setting": "[2]; 100° C.", "result": 0.52}, {"measurement": "c (interaction parameter table, constant)", "setting": "[2]; 100° C.", "result": "−3.12"}, {"measurement": "l (dispersion forces)", "setting": "[2]; 100° C.", "result": 0.46}, {"measurement": "r (interaction via nonbonding and π-electrons)", "setting": "[2]; 100° C.", "result": 0}, {"measurement": "s (dipolarity/polarizability)", "setting": "[2]; 100° C.", "result": 1.47}, {"measurement": "thermal stability (volatilization/decomposition temperature)", "setting": "[3]", "result": "350-360 °C"}, {"measurement": "Refractive Index", "setting": "[4]", "result": 1.482}, {"measurement": "Surface Tension", "setting": "[5]", "result": 41.5, "unit": "dynes/cm"}]}
